Relative potency, IC50 and KF data for 15 compounds are collected here from ChEMBL document CHEMBL1126418, “Synthesis of chemically stable 9-substituted carbacyclin derivatives and their biological use” (Bioorg Med Chem Lett, 1992).

Assay [1] is described as follows: Evaluated for the relative potency to that of Iloprost. The class given is functional.
The species entered for assay [2] is Homo sapiens. The experiment in a line: The compound was tested for inhibition of blood platelet aggregation induced by ADP. The class given is functional, organism-based.
Assay [3] addresses Prostacyclin receptor (Homo sapiens) (UniProt P43119). Put plainly: Affinity for Prostaglandin I2 receptor. Also noted: unit not given here.
The species entered for assay [4] is Homo sapiens. Put plainly: The compound was tested for inhibition of blood platelet aggregation induced by ADP; 100-250*10e-9. Format: functional, organism-based.
For assay [5], the species on record is Homo sapiens. The experiment in a line: The compound was tested for inhibition of blood platelet aggregation induced by ADP; 0.5-2.5*10e-9. Format: functional, organism-based.
The species named for assay [6] is Homo sapiens. Put plainly: Compound was tested for inhibition of blood platelet aggregation induced by ADP; 0.2-0.5*10e-9. The class given is functional, organism-based.

A value given as a limit tells only on which side of the number the result lay.

Prostacyclin receptor (Homo sapiens), sequence (P43119 whole entry): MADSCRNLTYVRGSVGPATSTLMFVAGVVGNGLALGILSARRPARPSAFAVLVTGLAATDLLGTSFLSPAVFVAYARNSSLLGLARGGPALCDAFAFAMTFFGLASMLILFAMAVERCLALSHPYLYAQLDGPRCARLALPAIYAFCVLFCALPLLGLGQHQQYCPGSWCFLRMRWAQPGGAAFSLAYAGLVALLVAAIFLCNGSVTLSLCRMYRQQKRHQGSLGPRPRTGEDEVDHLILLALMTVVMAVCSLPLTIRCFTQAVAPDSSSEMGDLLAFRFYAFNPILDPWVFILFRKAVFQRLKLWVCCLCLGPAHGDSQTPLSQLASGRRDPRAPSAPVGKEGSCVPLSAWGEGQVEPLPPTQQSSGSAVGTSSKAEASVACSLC

One may read the IC50 as the point on the concentration scale where inhibition reaches its midpoint. Compound `CC#CCC(C)[C@H](O)/C=C/[C@H]1[C@H](O)C[C@]2(C#CCCCI)C/C(=C/CCCC(=O)O)C[C@H]12` (some centres undefined) registered a Relative potency in assay [1] of 0.001. In assay [2], this compound gave an IC50 of 200 nM. The KF in assay [3] was > 100.
In the case of `CC#CCC(C)[C@H](O)/C=C/[C@H]1[C@H](O)C[C@]2(C#CCCC(=O)O)C/C(=C\CCCC(=O)O)C[C@H]12` (some centres undefined), in assay [1], the Relative potency stood at 0.0002. The compound further returned an IC50 in assay [2] of 2000 nM. This compound yielded a KF in assay [3] of 200.
As for `CC#CCC(C)[C@H](O)/C=C/[C@H]1[C@H](O)C[C@]2(C#CCCCBr)C/C(=C/CCCC(=O)O)C[C@H]12` (some centres undefined), in assay [1], the Relative potency was determined as 0.001. Also, 100 nM corresponded to half-maximal inhibition in assay [4] (IC50).
`CC#CCC(C)[C@H](O)/C=C/[C@H]1[C@H](O)C[C@]2(CCCCCO)C/C(=C/CCCC(=O)O)C[C@H]12` (some centres undefined) registered a Relative potency in assay [1] of 4e-05. Also, in assay [2], the IC50 came to 11000 nM. Moreover, the KF result in assay [3] is on record as “n.k”.
With `CC#CCC(C)[C@H](O)/C=C/[C@H]1[C@H](O)C[C@]2(C#CCCCBr)C/C(=C\CCCC(=O)O)C[C@H]12` (some centres undefined), the IC50 in assay [5] came out at 0.5 nM. In assay [1], this compound showed a Relative potency of 1. In assay [3], the KF was 3.
Regarding `CC#CCC(C)[C@H](O)/C=C/[C@H]1[C@H](O)C[C@]2(C#CCCCI)C/C(=C\CCCC(=O)O)C[C@H]12` (some centres undefined), in assay [1], the Relative potency was 1. The compound also had a concentration for half-maximal inhibition (IC50) in assay [2] of 5 nM. The compound further came in with a KF in assay [3] of 5.6.
In the same order, the values of `CC#CCC(C)[C@H](O)/C=C/[C@H]1[C@H](O)C[C@]2(CCCCCO)C/C(=C\CCCC(=O)O)C[C@H]12` (some centres undefined) are 0.0006, 7000 nM and 130.
For the compound `CC#CCC(C)[C@H](O)/C=C/[C@H]1[C@H](O)C[C@]2(C#CCCCO)C/C(=C\CCCC(=O)O)C[C@H]12` (some centres undefined), in assay [1], the Relative potency came to 0.2. Also, the IC50 in assay [2] was 10 nM. The compound also yielded a KF in assay [3] of 25.
As for `CC#CCC(C)[C@H](O)/C=C/[C@@H]1[C@H]2CC(=CCCCC(=O)O)C[C@H]2C[C@H]1O` (some centres undefined) [ILOPROST], the Relative potency in assay [1] was found to be 0.0001. In addition, in assay [2], the IC50 was determined as 4400 nM. Besides, in assay [3], the KF turned out to be 11.
The matching figures for `CC#CCC(C)[C@H](O)/C=C/[C@H]1[C@H](O)C[C@]2(CCCCCN=[N+]=[N-])C/C(=C\CCCC(=O)O)C[C@H]12` (some centres undefined): 0.0005, 500 nM and 29.
In the same order, the values of `CC#CCC(C)[C@H](O)/C=C/[C@H]1[C@H](O)C[C@]2(C#CCCCO)C/C(=C/CCCC(=O)O)C[C@H]12` (some centres undefined) are 0.004, 200 nM and 300.
As for `CC#CCC(C)[C@H](O)/C=C/[C@@H]1[C@H]2C/C(=C/CCCC(=O)O)C[C@H]2C[C@H]1O` (stereo in doubt; 1) [ILOPROST], the Relative potency in assay [1] stood at 1. In addition, in assay [6], the IC50 was 0.2 nM. The KF in assay [3] amounted to 1.
The compound `CC#CCC(C)[C@H](O)/C=C/[C@H]1[C@H](O)C[C@]2(C#CCCCN=[N+]=[N-])C/C(=C\CCCC(=O)O)C[C@H]12` (some centres undefined) showed a Relative potency in assay [1] of 0.1. In addition, the IC50 in assay [2] was 20 nM. In addition, the KF in assay [3] is 6.
Compound `CC#CCC(C)[C@H](O)/C=C/[C@H]1[C@H](O)C[C@]2(CCC#CCCCO)C/C(=C\CCCC(=O)O)C[C@H]12` (some centres undefined) returned a Relative potency in assay [1] of 0.002. This compound registered an IC50 in assay [2] of 400 nM. The KF in assay [3] came out at 180.
In assay [1], `CC#CCC(C)[C@H](O)/C=C/[C@H]1[C@H](O)C[C@]2(C#CCCCN=[N+]=[N-])C/C(=C/CCCC(=O)O)C[C@H]12` (some centres undefined) showed a Relative potency of 0.003. In addition, the IC50 in assay [2] came to 850 nM. Also, the KF in assay [3] was determined as 80.
